Assay results as given in publication PMC5358776, “Insight into the mechanism of action of temporin-SHa, a new broad-spectrum antiparasitic and antibacterial agent” (PLoS ONE, 2017).
In brackets after ≈: the same amount, converted by molar mass. Like-named read-outs stand apart in the source and are kept apart here. Where no end group is shown, it is not given here.

Legend:
[1] = system: E. coli ATCC 25922; assay: Multipassage resistance selection; assay type: cell-based, Escherichia coli; settings: for fold increase in the MIC against control bacteria at the end of the selection: lineages grown without antimicrobial agent, passage 55
[2] = system: E. coli ML-35p; settings: MH broth, 10^6 cfu/ml; mean of 3 independent experiments in triplicate
Protocol: (§1) Listeria ivanovii Li4pVS2 (kindly provided by Jean-Marc Berjeaud, Université de Poitiers, France), and Streptococcus pyogenes ATCC 19615 (ATCC) were cultured in brain heart infusion (BHI, Sigma-Aldrich) medium under the same conditions.
(§2) Activity against bacteria and yeasts was assessed with a liquid growth inhibition assay performed in 96-well microtitration plates, according to a previously described protocol [14], using mid-logarithmic phase cultures diluted in Mueller-Hinton (MH, Dominique Dutscher) broth (LB broth for E. faecalis strain and YPD medium for yeasts/fungi) to an A630 value of 0.01 (10^6 cfu/ml) and 2-fold serial dilutions of synthetic temporin (200–1 μM, final concentrations). The minimal inhibitory concentration (MIC) was determined as the mean value of three independent experiments, each performed in triplicate with negative (H2O) and positive (0.7% formaldehyde) controls.

[3] = system: C. albicans ATCC 90028; settings: ATCC 90028, 96 h
Protocol: (§3) Candida albicans ATCC 90028, Candida parapsilosis ATCC 22019 (ATCC), and Saccharomyces cerevisiae (laboratory collection) were cultured in yeast peptone dextrose (YPD, Sigma-Aldrich) medium at 30°C.
(§4) The minimal inhibitory concentration (MIC) was determined as the mean value of three independent experiments, each performed in triplicate with negative (H2O) and positive (0.7% formaldehyde) controls.

[4] = system: S. aureus ST1065; settings: ST1065
Protocol: as §2

[5] = system: K. pneumoniae ATCC 13883; settings: ATCC 13883
Protocol: as §2

[6] = system: Rat erythrocytes; settings: 1 h
Protocol: (§5) Hemolytic assays were also performed using erythrocytes obtained from fresh blood samples of Wistar male rats (Charles River Laboratories, France). The hemolytic activity was measured by incubating the peptide (1–200 μM, final concentrations) with erythrocytes (2 x 10^7 cells) in PBS (100 μl) for 1 h at 37°C, as previously described [23]. A parallel incubation in the presence of 0.1% (v/v) Triton-X100 was carried out to determine the absorbance associated with 100% hemolysis. […] For THP-1-derived macrophages, viability was determined by Trypan blue staining after incubation with peptide (1–100 μM, final concentrations). LC50 (average concentration of the peptide producing 50% cell lysis) and IC50 values were determined with GraphPad Prism 6.0 software and correspond to the mean obtained from three independent experiments carried out with three (erythrocytes, THP-1 monocytes, HepG2 and HFF cells) or six replicates (THP-1-derived macrophages).
(§6) IC50 or LC50 values were determined for the different human cells mentioned above in the cytotoxicity assays.

[7] = system: S. cerevisiae; settings: 96 h
Protocol: as §3, §4

[8] = system: L. ivanovii
Protocol: as §1, §2

[9] = system: C. parapsilosis ATCC 22019; settings: ATCC 22019, 96 h
Protocol: as §3, §4

[10] = system: Gram-negative and Gram-positive bacteria and yeasts/fungi; assay: MIC, whole panel of strains; assay type: cell-based; settings: against all strains
[11] = system: S. enterica (serotype Enteritidis); settings: serotype Enteritidis
Protocol: as §2

[12] = system: S. aureus ATCC 25923; settings: ATCC 25923
Protocol: as §2

[13] = system: P. aeruginosa ATCC 27853; settings: ATCC 27853
Protocol: as §1, §2

[14] = system: E. faecalis ATCC 29212; settings: ATCC 29212
Protocol: as §1, §2

[15] = system: E. coli ATCC 25922; settings: ATCC 25922
Protocol: as §1, §2

[16] = system: A. baumannii ATCC 19606; settings: ATCC 19606
Protocol: as §2

[17] = system: Human THP-1 monocytes; settings: 72 h
[18] = system: Human erythrocytes; settings: 1 h
Protocol: as §5, §6

[19] = system: Human HepG2; settings: MTT, 72 h, 37°C, 50–600 μM; mean of 3 independent experiments in triplicate
[20] = system: S. pyogenes ATCC 19615; settings: ATCC 19615
Protocol: as §1, §2

[21] = system: L. infantum promastigotes; settings: promastigotes, 96 h
Protocol: L. infantum axenic amastigotes were differentiated from promastigotes in MAA medium (supplemented with 20% FCS) and were grown at 37°C in 5% CO2 [23].
Antiparasitic activity was evaluated against trypanosomatids, such as Leishmania and Trypanosoma. Antileishmanial activity was determined either by a luminescence-based assay (L. infantum, L. major and L. braziliensis) or by cell counting (FACSCalibur flow cytometer, Becton-Dickinson Biosciences, Woburn, MA, USA) after staining with propidium iodide (L. tropica and L. amazonensis), as previously described [23], using promastigotes or axenic amastigotes (1.25 x 10^6 parasites/ml) in mid-log phase and 5-fold serial dilutions of synthetic temporin (50–3.1 μM, final concentrations). […] The half maximal inhibitory concentration (IC50) value was determined with GraphPad Prism 6.0 software (GraphPad Software, La Jolla, CA, USA) using a sigmoidal dose response (variable slope) curve fitting equation. The results are expressed as the means of three independent experiments performed in triplicate (luminescence-based assays) or in duplicate (cell counting-based assays).

Molecule	fold increase in the MIC against control bacteria at the end of the selection [1] [fold]	MIC [2] [µM]	MIC [3] [µM]	MIC [4] [µM]	MIC [5] [µM]	LC50 [6] [µM]	MIC [7] [µM]	MIC [8] [µM]	MIC [9] [µM]	MIC [10] [µM]	MIC [11] [µM]	MIC [12] [µM]	MIC [13] [µM]	MIC [14] [µM]	MIC [15] [µM]	MIC [16] [µM]	IC50 [17] [µM]	further results
CC1(C)S[C@@H]2[C@H](NC(=O)[C@H](N)c3ccccc3)C(=O)N2[C@H]1C(=O)O [ampicillin]	4	–	–	–	–	–	–	–	–	–	–	–	–	–	–	–	–	MIC ([1]; Escherichia coli, ATCC25922, read-out: MIC (initial, before selection)): 12.5 µM (≈ 4.37 µg/mL); fold increase in the MIC against adapted E. coli lineages ([1]; lineages adapted from MIC/16 to MIC, 55 passages): 6 fold
D-temporin-SHa [D-SHa]	~2	–	–	–	–	–	–	–	–	–	–	–	–	–	–	–	–	–
FAKGIAGMAGKLF-NH2 [[A^2,6,9, K^3]SHa, [A^2,6,9, K^3]temporin-SHa]	–	> 200	> 200	> 200	> 200	> 200	> 200	> 200	> 200	> 200	> 200	> 200	> 200	> 200	> 200	> 200	–	–
FASGIAGMAGKLF-NH2 [[A^2,6,9]SHa, [A^2,6,9]temporin-SHa]	–	> 200	> 200	> 200	> 200	> 200	> 200	> 200	> 200	> 200	> 200	> 200	> 200	> 200	> 200	> 200	> 60	LC50 [18]: > 100 µM; IC50 [19]: > 600 µM; MIC [20]: > 200 µM
GLWSKIKEVGKEAAKAAAKAAGKAALGAVSEAV-NH2 (C-terminus assumed) [dermaseptin B2, reference compound]	–	–	–	–	–	–	–	–	–	–	–	–	–	–	–	–	~7	IC50 [21]: 2500 nM
